{
  "source": "patent US8785594B2",
  "about": "“Glycoproteins and glycosylated cells and a method for the preparation of the same” (Glycom A/S, priority 2007, dated 2014)",
  "assay_type_in_all_cases": "cell-based",
  "key": {"B16.BL6 melanoma cells [1]": {"tested_on": "B16.BL6 melanoma cells", "assay": "Flow cytometry with FITC-labelled GS1B4 (Example 13)", "experimental": "The alpha-Gal trisaccharide probe (9) was dissolved in HBSS (Gibco Invitrogen, Taastrup, Denmark) and passed through a sterile filter (0.2 μm Supor® Acrodisc® 13, Gelman Sciences, Ann Arbor, Mich.). Three different concentrations of the alpha-Gal trisaccharide-carbamate (9) were made. Five small flasks were prepared with 606 μL of cell suspension containing a total of 10^6 B16.BL6 cells in addition to 4 mL of one of the conjugate solutions. Each flask contained a total volume of 4.6 mL. The cells were incubated with the “Glycom conjugate” for either 3 or 1.5 hours at 37° C.\nAfter conjugation, the supernatant from each flask was transferred to separate 10 mL tubes (TPP, Trasadingen Switzerland). Cells were washed twice by adding PBS to the flasks and immediately removing it again. The cells were harvested with Cell Dissociation Solution (2 mL per flask) (Sigma-aldrich, Saint Louis, Mo.). After 5 minutes, cells were transferred to the 10 mL test tubes. The cells were centrifuged for 5 minutes at 300 G at 20° C. and resuspended in 0.5 mL of PBS. Cell concentration and viability was determined by microscopic evaluation of trypan blue stained cell samples.\nOne hundred μL of cell suspension containing 1×10^5 cells were incubated for 15 minutes at 4° C. with 10 μg per mL (1:100 dilution) of FITC-labelled GS1B4 in PBS. Rabbit red blood cells (A) were used for comparison,\nAs very few cells were available for flow cytometry analysis the exact cell concentration was not determined. Instead, the amount of cells used was estimated to 0.4×10^5. The cells were incubated for 15 minutes at 4° C. with 4 μg per mL of FITC-labelled GS1B4 in PBS. Rabbit red blood cells (B) were used for comparison.\nMean and median cell fluorescence intensity was determined by flow cytometry."}, "B16.BL6 melanoma cells [2]": {"tested_on": "B16.BL6 melanoma cells", "assay": "Flow cytometry with FITC-labelled GS1B4 (Example 15)", "conditions": "all conjugation reactions, 10 μg-20 mg regular probe", "experimental": "Radioactive labelled and regular alpha-Gal trisaccharide-carbamate (9) probe (labeled on the cyclic carbamate carbon) was dissolved in HBSS containing D-glucose (without Mg^2+ and Ca^2+) (Gibco Invitrogen, Taastrup, Denmark) and passed through sterile filters (0.2 μm Supor® Acrodisc® 13, Gelman Sciences, Ann Arbor, Mich.). Eight different concentrations of radioactive labelled alpha-Gal trisaccharide-carbamate (9) (1 μg, 10 μg, 100 μg, 1 mg, 5 mg, 10 mg, 15 mg and 20 mg) and […] concentrations of regular “Glycom conjugate” (10 μg, 100 μg, 1 mg, 5 mg, 10 mg, 15 mg and 20 mg) were used. Twelve flasks (300 cm^2) (TPP, Trasadingen Switzerland) were prepared, each containing 10×10^6 B16.BL6 cells, for conjugation with the radioactive labelled trisaccharide probe, and 8 flasks (150 cm^2) (TPP, Trasadingen Switzerland) were prepared, each containing 5×10^6 B16.BL6 cells, for conjugation with the non-radioactive conjugate. […] This was repeated 3 times before cell concentration and viability was determined by microscopic evaluation of trypan blue stained cell samples.\nCells conjugated with regular trisaccharide probe were analysed by flow cytometry. […] Mean fluorescence intensity of cells stained with GS1B4 was measured by flow cytometry."}, "B16.BL6 melanoma cells [3]": {"tested_on": "B16.BL6 melanoma cells", "assay": "Cell viability after 1 hour conjugation, trypan blue (Example 12)", "conditions": "for Viability of cells harvested: 1 hour", "experimental": "The alpha-Gal trisaccharide-carbamate probe (9) was dissolved in both PBS (without Mg^2+ and Ca^2+) (Gibco Invitrogen, Taastrup, Denmark) and HBSS (with D-glucose) (Gibco Invitrogen, Taastrup, Denmark) and passed through sterile filters (Sartorius Minisart®, 0.20 my) (Sartorius, Goettingen, Germany). Three different concentrations of the trisaccharide probe were prepared in both PBS and HBSS.\nEight small flasks (25 cm^2) (TPP, Trasadingen Switzerland) were prepared, each containing 10^6 B16.BL6 cells, and the trisaccharide probe was added. Total volume of the flasks was 4.6 mL. The cells were incubated with the conjugate for 1 hour at 37° C. and 5% CO2.\nAfter conjugation, the supernatant from each flask was transferred to separate 10 mL tubes (TPP, Trasadingen Switzerland). The cells were harvested with Cell Dissociation Solution (2 mL per flask) (Sigma-aldrich, Saint Louis, Mo.) and transferred to the 10 mL tubes. Cells were centrifuged for 5 minutes at 300 G at 20° C. and resuspended in 0.5 mL of PBS or HBSS. Cell concentration and viability was determined by microscopic evaluation of trypan blue stained cell samples."}, "[4]": {"conditions": "reaction 1, 19.2 mg, 3 hours, 10 μg per mL FITC-GS1B4"}, "[5]": {"conditions": "reaction 2, 19.2 mg, 1.5 hours, group of 35.3% of the cells"}, "[6]": {"conditions": "reaction 2, 19.2 mg, 1.5 hours, group of 62.7% of the cells"}, "[7]": {"conditions": "reaction 4, 58 mg, 1.5 hours, group of 15.65% of the cells"}, "[8]": {"conditions": "reaction 4, 58 mg, 1.5 hours, group of 84.26% of the cells"}},
  "note": "Marks after values point to notes of the source that are not given here.",
  "data": [
    {"smiles": "O=C1N[C@@H]2O[C@H](CO)[C@@H](O[C@@H]3O[C@H](CO)[C@H](O)[C@H](O[C@H]4O[C@H](CO)[C@H](O)[C@H](O)[C@H]4O)[C@H]3O)[C@H](O)[C@H]2O1", "note": "[Compound 9, alpha-Gal trisaccharide-carbamate]", "values": [
      {"measurement": "Galα1,3Gal epitopes detected by binding of FITC-labelled GS1B4, flow cytometry", "setting": "B16.BL6 melanoma cells [1]; all conjugation reactions (1.9-58 mg, 1.5 or 3 hours)", "result": "found on B16.BL6 cells from all conjugation reactions"},
      {"measurement": "Mean fluorescence intensity", "setting": "B16.BL6 melanoma cells [1]; [4]", "result": 197.8},
      {"measurement": "Median fluorescence intensity", "setting": "B16.BL6 melanoma cells [1]; [4]", "result": 155.4},
      {"measurement": "Share of the cells in the group of higher fluorescence intensity", "setting": "B16.BL6 melanoma cells [1]; reaction 2, 19.2 mg, 1.5 hours", "result": "2 (35.3% of the cells)**"},
      {"measurement": "Share of the cells in the group of lower fluorescence intensity", "setting": "B16.BL6 melanoma cells [1]; reaction 2, 19.2 mg, 1.5 hours", "result": "2 (62.7% of the cells)**"},
      {"measurement": "Mean fluorescence intensity", "setting": "B16.BL6 melanoma cells [1]; [5]", "result": 2940.2},
      {"measurement": "Median fluorescence intensity", "setting": "B16.BL6 melanoma cells [1]; [5]", "result": 2196.8},
      {"measurement": "Mean fluorescence intensity", "setting": "B16.BL6 melanoma cells [1]; [6]", "result": 161.63},
      {"measurement": "Median fluorescence intensity", "setting": "B16.BL6 melanoma cells [1]; [6]", "result": 125.2},
      {"measurement": "Mean fluorescence intensity", "setting": "B16.BL6 melanoma cells [1]; reaction 3, 1.9 mg, 1.5 hours", "result": 167.8},
      {"measurement": "Median fluorescence intensity", "setting": "B16.BL6 melanoma cells [1]; reaction 3, 1.9 mg, 1.5 hours", "result": 66.4},
      {"measurement": "Share of the cells in the group of higher fluorescence intensity", "setting": "B16.BL6 melanoma cells [1]; reaction 4, 58 mg, 1.5 hours", "result": "4 (15.65% of the cells)"},
      {"measurement": "Share of the cells in the group of lower fluorescence intensity", "setting": "B16.BL6 melanoma cells [1]; reaction 4, 58 mg, 1.5 hours", "result": "4 (84.26% of the cells)"},
      {"measurement": "Mean fluorescence intensity", "setting": "B16.BL6 melanoma cells [1]; [7]", "result": 770.0},
      {"measurement": "Median fluorescence intensity", "setting": "B16.BL6 melanoma cells [1]; [7]", "result": 504.8},
      {"measurement": "Mean fluorescence intensity", "setting": "B16.BL6 melanoma cells [1]; [8]", "result": 49.2},
      {"measurement": "Median fluorescence intensity", "setting": "B16.BL6 melanoma cells [1]; [8]", "result": 44.1},
      {"measurement": "Binding of FITC-labelled GS1B4 to cells", "setting": "B16.BL6 melanoma cells [2]", "result": "no binding above background levels"},
      {"measurement": "Viability of cells after incubation, before harvest", "setting": "B16.BL6 melanoma cells [3]; after the 1-hour incubation with the trisaccharide probe", "result": "most of the cells were viable"},
      {"measurement": "Viability of cells harvested", "setting": "B16.BL6 melanoma cells [3]; reaction HA, 16 mg, HBSS (with D-glucose)", "result": 33.3, "unit": "%"},
      {"measurement": "Viability of cells harvested", "setting": "B16.BL6 melanoma cells [3]; reaction HB, 2 mg, HBSS (with D-glucose)", "result": 41.7, "unit": "%"},
      {"measurement": "Viability of cells harvested", "setting": "B16.BL6 melanoma cells [3]; reaction HC, 1 mg, HBSS (with D-glucose)", "result": 41.6, "unit": "%"},
      {"measurement": "Viability of cells harvested", "setting": "B16.BL6 melanoma cells [3]; reaction PA, 16 mg, PBS", "result": 14.3, "unit": "%"},
      {"measurement": "Viability of cells harvested", "setting": "B16.BL6 melanoma cells [3]; reaction PB, 2 mg, PBS", "result": 32.0, "unit": "%"},
      {"measurement": "Viability of cells harvested", "setting": "B16.BL6 melanoma cells [3]; reaction PC, 1 mg, PBS", "result": 37.5, "unit": "%"}
    ]}
  ]
}
